For data set [1], the system named is P. stutzeri clinical isolate 13. The experiment in a line: Routine antibiogram by disk diffusion assay. It is filed as cell-based, Pseudomonas stutzeri. Conditions: clinical isolate P. stutzeri 13 expressing DIM-1. As to the method: Bacterial strains. P. stutzeri clinical isolate 13 was identified with the API-20 NE system (BioMérieux, Marcy l'Etoile, France), and confirmed by rRNA sequencing. Escherichia coli TOP10 (In Vitrogen, Carlsbad, Calif.)was the host for cloning experiments (Poirel et al., 2001)
(§1) Susceptibility testing. Antibiotic-containing disks were used for routine antibiograms by the disk diffusion assay (Sanofi-Diagnostic Pasteur, Marnes-la-Coquette, France). The ESBL double-disk synergy test was performed with disks containing ceftazidime or cefepime and ticarcillin-clavulanic acid on Mueller-Hinton agar plates, and the results were interpreted as described previously (Poirel, Le Thomas et al., 2000). The carbapenemase detection was performed by using Etest carbapenem-containing strips (AB Biodisk, Solna, Sweden).
Background: A growth-free zone around the sample is the usual read-out of agar diffusion tests.

In data set [2] the test system is P. stutzeri 13. The experiment in a line: MICs by agar dilution technique. Format: cell-based, Pseudomonas stutzeri. Conditions: for β-lactam susceptibility from MICs: agar dilution, 37° C., 18 h; for restoration of susceptibility to penicillins on addition of inhibitor: clavulanic acid 2 μg/ml, tazobactam 4 μg/ml. As to the method: (§2) MICs were determined by an agar dilution technique with Mueller-Hinton agar (Sanofi-Diagnostic Pasteur) with an inoculum of 10^4 CFU/ml, as described previously (Poirel, Le Thomas et al., 2000). All plates were incubated at 37° C. for 18 h at ambient atmosphere. MICs of β-lactams were determined alone or in combination with a fixed concentration of clavulanic acid (2 μg/ml), tazobactam (4 μg/ml), and sulbactam (4 μg/ml). MIC results were interpreted according to the guidelines of the National Committee for Clinical Laboratory Standards (NCCLS) (CLSI).

Another data set concerns E. coli DH10B(pXD-1). The experiment in a line: MICs by agar dilution technique. It is filed as cell-based, Escherichia coli. Particulars: for β-lactam susceptibility from MICs: agar dilution, 37° C., 18 h; for restoration of susceptibility to penicillins on addition of inhibitor: clavulanic acid 2 μg/ml, tazobactam 4 μg/ml. As to the method: as §2
A general note: In agar dilution the substance is mixed into plates at graded concentrations.

The next data set has as its target carbapenemase DIM-1 (Stutzerimonas stutzeri, UniProt D5JGF6). The data set is described as follows: Kinetic measurements with purified carbapenemase (hydrolysis of β-lactams). It is filed as biochemical, P. stutzeri. Conditions: purified DIM-1, 30° C., 100 mM sodium phosphate pH 7.0. The source says:
(§3) Carbapenemase purification and isoelectric focusing (IEF) analysis. […] Carbapenemase was purified by ion-exchange chromatography.

The subject of data set [3] is P. stutzeri 13. The experiment in a line: Carbapenemase detection with Etest carbapenem-containing strips. Conditions: imipenem alone vs with EDTA. It is filed as cell-based, Pseudomonas stutzeri. As to the method:
as §1

For data set [4], the system named is CC(C)(O/N=C(\C(=O)N[C@@H]1C(=O)N2C(C(=O)[O-])=C(C[n+]3ccccc3)CS[C@H]12)c1csc(N)n1)C(=O)O. The experiment in a line: Kinetic measurements with purified carbapenemase (hydrolysis of β-lactams). Conditions: other: purified DIM-1, 30° C., 100 mM sodium phosphate pH 7.0. It is filed as biochemical, P. stutzeri.
Text: as §3

Data set [5] is described as follows: Specific activity of purified carbapenemase (imipenem hydrolysis). Format: biochemical. Conditions: purified enzyme; 1 U = 1 μmol of imipenem hydrolyzed per min per mg of protein. As to the method: The specific activity of the purified carbapenemase from E. coli DH10B(pXD-1) was obtained as described previously (Poirel et al., 1999). One unit of enzyme activity was defined as the activity which hydrolyzed 1 μmol of imipenem per min per mg of protein. The total protein content was measured with the DC Protein assay kit (Bio-Rad, Ivry-sur-Seine, France).

As for `NCC[C@H](O)C(=O)N[C@@H]1C[C@H](N)[C@@H](O[C@H]2O[C@H](CN)[C@@H](O)[C@H](O)[C@H]2O)[C@H](O)[C@H]1O[C@H]1O[C@H](CO)[C@@H](O)[C@H](N)[C@H]1O` [amikacin], in data set [1], the “susceptibility of P. stutzeri 13” value was “susceptible”. For `C[C@H]1[C@H](NC(=O)/C(=N\OC(C)(C)C(=O)O)c2csc(N)n2)C(=O)N1S(=O)(=O)O` [aztreonam], the “susceptibility of P. stutzeri 13” value in data set [1] is recorded as “fully susceptible”. Further, the “β-lactam susceptibility from MICs” value in the data set on P. stutzeri 13 [2] and with E. coli DH10B(pXD-1) was “spared” in each case. Also, the “hydrolysis by DIM-1 (relative hydrolysis rates, substrate profile)” value (from here on “relative hydrolysis rates”) on carbapenemase DIM-1 is listed as “excluding”. Turning to `CO/N=C(\C(=O)N[C@@H]1C(=O)N2C(C(=O)[O-])=C(C[N+]3(C)CCCC3)CS[C@H]12)c1csc(N)n1` [cefepime], in data set [1], the “susceptibility of P. stutzeri 13” value is listed as “reduced susceptibility”. Take `CO/N=C(\C(=O)N[C@@H]1C(=O)N2C(C(=O)O)=C(COC(C)=O)CS[C@H]12)c1csc(N)n1` [cefotaxime]: at carbapenemase DIM-1, the “relative hydrolysis rates” value was “hydrolyzed at a similar level as benzylpenicillin”.

Consider `CO[C@@]1(NC(=O)Cc2cccs2)C(=O)N2C(C(=O)O)=C(COC(N)=O)CS[C@@H]21` [cefoxitin], for which, on carbapenemase DIM-1, the “relative hydrolysis rates” value is on record as “good substrate”. On to `CO/N=C(\C(=O)N[C@@H]1C(=O)N2C(C(=O)[O-])=C(C[n+]3cccc4c3CCC4)CS[C@H]12)c1csc(N)n1` [cefpirome], for which, in data set [1], the “susceptibility of P. stutzeri 13” value is listed as “reduced susceptibility”.

With `CC(C)(O/N=C(\C(=O)N[C@@H]1C(=O)N2C(C(=O)[O-])=C(C[n+]3ccccc3)CS[C@H]12)c1csc(N)n1)C(=O)O` [ceftazidime], the “susceptibility of P. stutzeri 13” value in data set [1] is “reduced susceptibility”. Further, the “relative hydrolysis rates” value at carbapenemase DIM-1 is “well hydrolyzed”. For the molecule `O=C(N[C@H](CO)[C@H](O)c1ccc([N+](=O)[O-])cc1)C(Cl)Cl` [chloramphenicol], the “susceptibility of P. stutzeri 13” value in data set [1] was “resistant”. In the case of `O=C(O)[C@H]1/C(=C/CO)O[C@@H]2CC(=O)N21` [clavulanic acid], the “restoration of susceptibility to penicillins on addition of inhibitor” value in the data set on P. stutzeri 13 [2] and in the data set on E. coli DH10B(pXD-1) was “did not restore any susceptibility to penicillins” throughout. `C[C@@H](O)[C@H]1C(=O)N2C(C(=O)O)=C(SCCN=CN)C[C@H]12` [imipenem]: the “MIC (carbapenem-containing E-test)” value with P. stutzeri 13 [3] was determined as 64 µg/mL. Consider `C[C@@H](O)[C@H]1C(=O)N2C(C(=O)O)=C(S[C@@H]3CN[C@H](C(=O)N(C)C)C3)[C@H](C)[C@H]12` [meropenem], for which the “β-lactam susceptibility from MICs” value in the data set with P. stutzeri 13 [2] and in the data set with E. coli DH10B(pXD-1) was “reduced susceptibility” throughout.

As to `CCN[C@@H]1C[C@H](N)[C@@H](O[C@H]2OC(CN)=CC[C@H]2N)[C@H](O)[C@H]1O[C@H]1OC[C@](C)(O)[C@H](NC)[C@H]1O` [netilmicin], the “susceptibility of P. stutzeri 13” value in data set [1] is “susceptible”. On to `CCN1CCN(C(=O)N[C@@H](C(=O)N[C@@H]2C(=O)N3[C@@H]2SC(C)(C)[C@@H]3C(=O)O)c2ccccc2)C(=O)C1=O` [piperacillin], for which the “susceptibility of P. stutzeri 13” value in data set [1] is on record as “resistant”. With `C[C@]1(Cn2ccnn2)[C@H](C(=O)O)N2C(=O)C[C@H]2S1(=O)=O` [tazobactam], the “restoration of susceptibility to penicillins on addition of inhibitor” value with P. stutzeri 13 [2] and in the data set on E. coli DH10B(pXD-1) was “did not restore any susceptibility to penicillins” each time. Regarding `CC1(C)S[C@@H]2[C@H](NC(=O)[C@H](C(=O)O)c3ccsc3)C(=O)N2[C@H]1C(=O)O` [ticarcillin], the “susceptibility of P. stutzeri 13” value in data set [1] was “resistant”.

With `NC[C@H]1O[C@H](O[C@H]2[C@H](O)[C@@H](O[C@H]3O[C@H](CO)[C@@H](O)[C@H](N)[C@H]3O)[C@H](N)C[C@@H]2N)[C@H](N)C[C@@H]1O` [tobramycin], the “susceptibility of P. stutzeri 13” value in data set [1] is “resistant”. One may read the Km as the substrate concentration at which the rate is half of its maximum. “carbapenemase DIM-1 (Stutzerimonas stutzeri)”: the Km in data set [4] was 50 µM. For colistin, in data set [1], the “susceptibility of P. stutzeri 13” value is “susceptible”. The same measure, in the same setting: the entry for gentamicin is “resistant”; for piperacillin-tazobactam it is “resistant”.

B1: DIM-1: Ambler class B carbapenemase (Dutch IMipenemase) from P. stutzeri 13, SEQ ID NO:1 (protein, listed as Pseudomonas stutzeri)
chain: MRTHFTALLLLFSLSSLANDEVPELRIEKVKENIFLHTSYSRVNGFGLVSSNGLVVIDKGNAFIVDTPWSDRDTETLVHWIRKNGYELLGSVSTHWHEDRTAGIKWLNDQSISTYATTSTNHLLKENKKEPAKYTLKGNESTLVDGLIEVFYPGGGHTIDNVVVWLPKSKILFGGCFVRSLDSEGLGYTGEAHIDQWSRSAQNALSRYSEAQIVIPGHGKIGDIALLKHTKSLAETASNKSIQPNANASAD
For the molecule B1, the specific activity in data set [5] is 21 U.mg of protein^−1.
